# Results: the SangsterLogP compilation
row,SMILES,logP
1,CCC/C=C/C(=O)N1Cc2cc(OCCc3coc(/C=C/CCCC(C)C)n3)ccc2CC1C(=O)O (configuration not stated),4.04
2,CC(C)CCC/C=C/c1nc(CCOc2ccc3c(c2)CN(C(=O)/C=C/c2cccs2)C(C(=O)O)C3)co1 (configuration not stated),3.95
3,CCO/C=C/C(=O)N1Cc2cc(OCCc3coc(/C=C/CCCC(C)C)n3)ccc2CC1C(=O)O (configuration not stated),3.56
4,CC(C)CCC/C=C/c1nc(CCOc2ccc3c(c2)CN(C(=O)/C=C/c2ccco2)C(C(=O)O)C3)co1 (configuration not stated),3.76
5,Cc1oc(/C=C/CCC(C)C)nc1CCOc1ccc2c(c1)CN(C(=O)/C=C/c1ccco1)[C@H](C(=O)O)C2,3.76
6,C/C=C/C=C/C(=O)N1Cc2cc(OCCc3nc(/C=C/CCC(C)C)oc3C)ccc2C[C@H]1C(=O)O,3.81
7,C/C=C/C=C/C(=O)N1Cc2cc(OCCc3nc(/C(C)=C/CC)oc3C)ccc2C[C@H]1C(=O)O,2.88
8,CCC(O)/C=C/C(=O)N1Cc2cc(OCCc3coc(/C=C/CCCC(C)C)n3)ccc2CC1C(=O)O (configuration not stated),3.33
9,C/C=C/C=C/C(=O)N1Cc2cc(OCCc3nc(/C=C/C(C)(C)CC)oc3C)ccc2C[C@H]1C(=O)O,3.52
10,C/C=C/C=C/C(=O)N1Cc2cc(OCCc3nc(/C=C/CC(C)(C)C)oc3C)ccc2C[C@H]1C(=O)O,3.59
11,C/C=C/C=C/C(=O)N1Cc2cc(OCCc3nc(/C=C/C(C)CCC)oc3C)ccc2C[C@H]1C(=O)O (some centres not stated),3.84
12,CC(C)CCC/C=C/c1nc(CCOc2ccc3c(c2)CN(C(=O)/C=C/C2CC2)C(C(=O)O)C3)co1 (configuration not stated),3.69
13,C/C=C/C=C/C(=O)N1Cc2cc(OCCc3nc(C=CCC(C)C)oc3C)ccc2CC1C(=O)O (configuration not stated),3.23
14,C/C=C/C=C/C(=O)N1Cc2cc(OCCc3nc(/C=C/C(C)C)oc3C)ccc2C[C@H]1C(=O)O,2.77
15,C/C=C/C=C/C(=O)N1Cc2cc(OCCc3nc(/C(=C/C)CC)oc3C)ccc2C[C@H]1C(=O)O,2.75
16,CCCCCC(=O)N1Cc2cc(OCCc3coc(/C=C/CCCC(C)C)n3)ccc2CC1C(=O)O (configuration not stated),4.34
17,C=CCCC(=O)N1Cc2cc(OCCc3nc(/C=C/CCC(C)C)oc3C)ccc2C[C@H]1C(=O)O,3.76
18,CCOCCC(=O)N1Cc2cc(OCCc3coc(/C=C/CCCC(C)C)n3)ccc2CC1C(=O)O (configuration not stated),3.48
19,Cc1oc(/C=C/CCC(C)C)nc1CCOc1ccc2c(c1)CN(C(=O)/C=C/C=C/CO)C(C(=O)O)C2 (configuration not stated),3.09
20,C/C=C/C=C/C(=O)N1Cc2cc(OCCc3nc(CCCCC(C)C)oc3C)ccc2C[C@H]1C(=O)O,3.79
21,C=CCCCC(=O)N1Cc2cc(OCCc3coc(/C=C/CCCC(C)C)n3)ccc2CC1C(=O)O (configuration not stated),4.03
22,C/C=C/C=C/C(=O)N1Cc2cc(OCCc3nc(/C(C)=C/CCC(C)C)oc3C)ccc2C[C@H]1C(=O)O,4.29
23,C/C=C/C=C/C(=O)N1Cc2cc(OCCc3nc(/C=C/C(CC)CC)oc3C)ccc2C[C@H]1C(=O)O,3.68
24,CCOC/C=C/C(=O)N1Cc2cc(OCCc3coc(/C=C/CCCC(C)C)n3)ccc2CC1C(=O)O (configuration not stated),3.52
25,C/C=C/C=C/C(=O)N1Cc2cc(OCCc3nc(/C=C/C(C)(C)C)oc3C)ccc2C[C@H]1C(=O)O,3.1
26,CC(C)=C/C=C/C(=O)N1Cc2cc(OCCc3coc(/C=C/CCCC(C)C)n3)ccc2CC1C(=O)O (configuration not stated),4.09
27,C/C=C/C=C/C(=O)N1Cc2cc(OCCc3nc(/C=C/CCCC(C)C)oc3C)ccc2CC1C(=O)O (configuration not stated),4.1
